Experiment in all cases: ≥ marks a high value that may be exact or a test limit, other limits are often not marked, values filed in µg/mL are converted to µM
In experiment [1] the test system is Bacillus subtilis ATCC 6633.
For experiment [2], the system named is Escherichia coli ATCC 25922.
For experiment [3], the system named is Candida albicans ATCC 20032.
Experiment [4] concerns Staphylococcus aureus ATCC 25923.
The test system of another experiment is Staphylococcus aureus.
Experiment [5] relates to Streptococcus mitis ATCC 903.
Experiment [6] deals with Pseudomonas aeruginosa PAK.
The subject of experiment [7] is Streptococcus gordonii Challis DL1.
The test system of experiment [8] is Streptococcus sanguinis NY101.
Experiment [9] relates to Streptococcus mutans UA159.
Experiment [10] has as its system Shigella dysenteriae ATCC 9752.
Experiment [11] relates to Klebsiella pneumoniae ATCC 10031.
In experiment [12] the test system is Pseudomonas aeruginosa ATCC 27853.
In experiment [13] the test system is Salmonella enterica subsp. enterica serovar Typhimurium ATCC 14028.
Experiment [14] has as its system Staphylococcus epidermidis ATCC 12228.
Experiment [15] deals with Staphylococcus aureus ATCC 6538P.
Experiment [16] relates to Micrococcus luteus ATCC 10240.
The test system of experiment [17] is Staphylococcus epidermidis RP62A.
The subject of experiment [18] is Klebsiella pneumoniae KK3 9904.
Experiment [19] deals with Proteus mirabilis ATCC 25933.
Experiment [20] has as its system Staphylococcus aureus NCTC 8325.
Experiment [21] concerns Candida albicans ATCC 90028.
Experiment [22] deals with Enterococcus faecalis ATCC 29212.
For experiment [23], the system named is Enterobacter cloacae NHTCC 53001.

≈ marks a conversion by molar mass, not a printed value.

For `CC[C@H](C)[C@@H]1NC(=O)[C@H](CO)NC(=O)[C@H](CCCCN)NC(=O)[C@H]([C@@H](C)O)NC(=O)[C@H](Cc2c[nH]c3ccccc23)NC(=O)[C@@H](NC(=O)CNC(=O)[C@H](CCCN=C(N)N)NC(=O)[C@H](CC(C)C)NC(=O)[C@H](C)NC(=O)[C@H](C)N)CSSC[C@@H](C(=O)N2CCC[C@H]2C(=O)NCC(=O)N[C@@H](CCCCN)C(=O)N[C@@H](CCCN=C(N)N)C(=O)O)NC(=O)[C@@H]2CCCN2C(=O)[C@H](CCCCN)NC(=O)[C@@H]2CCCN2C(=O)[C@@H]2CCCN2C1=O` [AALRGCWTKSIPPKPCPGKR], the MIC (commonly the lowest concentration found to suppress growth) in [1] is no less than 46.2 µM; in [2] it was 46.2 µM (≈ 100 µg/mL); in experiment [3], no less than 46.2 µM; in [4] it was 5.8 µM (≈ 12.6 µg/mL).

Turning to `CC[C@H](C)[C@H](NC(=O)[C@H](Cc1ccccc1)NC(=O)[C@H](Cc1cnc[nH]1)NC(=O)[C@H](CCCCN)NC(=O)[C@@H](NC(=O)[C@@H](N)Cc1ccccc1)[C@@H](C)CC)C(=O)N[C@@H](Cc1cnc[nH]1)C(=O)N[C@@H](CCCN=C(N)N)C(=O)N[C@@H](Cc1ccccc1)C(=O)N[C@@H](CO)C(=O)NCC(=O)NCC(=O)N[C@@H](CC(C)C)C(=O)N[C@@H](CCC(N)=O)C(=O)N[C@@H](CC(C)C)C(=O)N[C@@H](CC(C)C)C(=O)N[C@@H](CCCCN)C(=O)N[C@@H](CCC(N)=O)C(=O)N[C@@H](CC(C)C)C(=O)N[C@@H](CC(C)C)C(=O)N[C@@H](CCCCN)C(=O)N[C@@H](CC(C)C)C(=O)N[C@@H](CC(C)C)C(=O)N[C@@H](CCCCN)C(=O)N[C@@H](CCC(N)=O)C(=O)N[C@@H](Cc1ccccc1)C(N)=O` [FIKHFIHRFSGGLQLLKQLLKLLKQF], the minimal inhibitory concentration (MIC) stood at 10.1 µM (≈ 32 µg/mL) in the experiment on Staphylococcus aureus; 19.8 µM (≈ 62.5 µg/mL) in experiment [5]; 10.1 µM (≈ 32 µg/mL) in experiment [6]; 2.54 µM (≈ 8 µg/mL) in [7]; 10.1 µM (≈ 32 µg/mL) in experiment [8]; 5.07 µM (≈ 16 µg/mL) in [9].

In the case of `CC[C@H](C)[C@H](NC(=O)[C@H](Cc1ccccc1)NC(=O)[C@H](Cc1cnc[nH]1)NC(=O)[C@H](CCCCN)NC(=O)[C@@H](NC(=O)[C@@H](N)Cc1ccccc1)[C@@H](C)CC)C(=O)N[C@@H](Cc1cnc[nH]1)C(=O)N[C@@H](CCCN=C(N)N)C(=O)N[C@@H](Cc1ccccc1)C(=O)NCC(=O)NCC(=O)NCC(=O)N[C@@H](CCCN=C(N)N)C(=O)N[C@@H](Cc1c[nH]c2ccccc12)C(=O)N[C@@H](CCCN=C(N)N)C(=O)N[C@@H](Cc1c[nH]c2ccccc12)C(=O)N[C@@H](CCCN=C(N)N)C(=O)N[C@@H](Cc1c[nH]c2ccccc12)C(=O)N[C@@H](Cc1ccccc1)C(N)=O` [FIKHFIHRFGGGRWRWRWF], the minimal inhibitory concentration (MIC) in the experiment with Staphylococcus aureus worked out at 12.4 µM (≈ 32 µg/mL); in experiment [5] it was 12.4 µM (≈ 32 µg/mL); in [6], 24.1 µM (≈ 62.5 µg/mL); in experiment [7], 12.4 µM (≈ 32 µg/mL); in [8], 12.4 µM (≈ 32 µg/mL); in experiment [9], 3.09 µM (≈ 8 µg/mL).

For the compound `CC[C@H](C)[C@H](NC(=O)[C@H](CCCCN)NC(=O)[C@H](C)NC(=O)CNC(=O)[C@@H](NC(=O)[C@@H](N)CO)[C@@H](C)CC)C(=O)N[C@@H](CC(C)C)C(=O)NCC(=O)NCC(=O)N[C@H](C(=O)N[C@@H](CCCCN)C(=O)N[C@H](C(=O)N[C@@H](Cc1ccccc1)C(=O)N[C@@H](Cc1ccccc1)C(=O)N[C@@H](CCCCN)C(=O)NCC(=O)N[C@@H](C)C(=O)N[C@@H](CC(C)C)C(=O)N[C@@H](CCCCN)C(=O)N[C@@H](CCC(=O)O)C(=O)N[C@@H](CC(C)C)C(=O)N[C@@H](C)C(=O)N[C@@H](Cc1ccccc1)C(=O)N[C@H](C(=O)N[C@@H](Cc1ccc(O)cc1)C(=O)N[C@@H](CC(C)C)C(=O)N[C@@H](CCC(N)=O)C(N)=O)[C@@H](C)O)[C@@H](C)O)C(C)C` [SIGAKILGGVKTFFKGALKELAFTYLQ], the MIC in experiment [1] was no less than 34.5 µM; in experiment [2], greater than 34.5 µM; in experiment [3] it was no less than 34.5 µM; in experiment [4], 12.9 µM (≈ 37.5 µg/mL).

Take `CC[C@H](C)[C@H](NC(=O)CN)C(=O)NCC(=O)NCC(=O)N[C@H](C(=O)N[C@@H](CC(C)C)C(=O)N[C@@H](CC(C)C)C(=O)N[C@@H](CO)C(=O)N[C@@H](C)C(=O)NCC(=O)N[C@@H](CCCCN)C(=O)N[C@@H](C)C(=O)N[C@@H](C)C(=O)N[C@@H](CC(C)C)C(=O)N[C@@H](CCCCN)C(=O)NCC(=O)N[C@@H](CC(C)C)C(=O)N[C@H](C(=O)N[C@@H](CCCCN)C(=O)N[C@H](C(=O)N[C@@H](CC(C)C)C(=O)N[C@@H](C)C(=O)N[C@@H](CCC(=O)O)C(=O)N[C@@H](CCCCN)C(=O)N[C@@H](Cc1ccc(O)cc1)C(=O)N[C@@H](C)C(=O)N[C@@H](CC(N)=O)C(N)=O)C(C)C)[C@@H](C)O)C(C)C` [GIGGVLLSAGKAALKGLTKVLAEKYAN]: the minimum inhibitory concentration (MIC) in [1] was no less than 37.8 µM; in [2], greater than 37.8 µM; in [3], no less than 37.8 µM; in [4] it was 7.11 µM (≈ 18.8 µg/mL).

On to `CC(C)C[C@H](NC(=O)[C@H](Cc1c[nH]c2ccccc12)NC(=O)[C@H](CCCCN)NC(=O)[C@H](CC(C)C)NC(=O)[C@@H](N)CC(C)C)C(=O)N[C@@H](CCCCN)C(=O)N[C@@H](CCCCN)C(N)=O` [LLKWLKK], for which the MIC is no less than 108 µM in [1]; greater than 215 µM in experiment [2]; no less than 108 µM in [10]; no less than 215 µM in experiment [11]; greater than 215 µM in experiment [12]; greater than 215 µM in experiment [13]. The minimum inhibitory concentration (MIC) in experiment [14] was greater than 215 µM; in experiment [15], no less than 215 µM; in [16], 26.9 µM (≈ 25 µg/mL).

Turning to `CC[C@H](C)[C@H](NC(=O)[C@H](Cc1cnc[nH]1)NC(=O)CNC(=O)[C@H](C)NC(=O)[C@@H](NC(=O)[C@@H](NC(=O)[C@H](CCCCN)NC(=O)[C@@H](NC(=O)[C@H](Cc1ccccc1)NC(=O)[C@H](C)NC(=O)[C@H](CCCCN)NC(=O)[C@H](C)NC(=O)[C@H](C)NC(=O)CNC(=O)[C@H](CCCCN)NC(=O)[C@H](CC(C)C)NC(=O)[C@@H](NC(=O)[C@H](CC(=O)O)NC(=O)[C@H](CCCN=C(N)N)NC(=O)[C@H](Cc1ccccc1)NC(=O)CN)C(C)C)C(C)C)[C@@H](C)O)C(C)C)C(=O)N[C@@H](C)C(=O)N[C@@H](CC(N)=O)C(N)=O` [GFRDVLKGAAKAFVKTVAGHIAN], the MIC against Staphylococcus aureus is 32 µM (≈ 75.8 µg/mL); in experiment [2] it was 3 µM (≈ 7.11 µg/mL); in [17], no less than 50 µM; in experiment [18] it was 6 µM (≈ 14.2 µg/mL); in experiment [19], no less than 100 µM; in experiment [20], no less than 100 µM. The minimum inhibitory concentration (MIC) was no less than 100 µM in experiment [21], 25 µM (≈ 59.2 µg/mL) in [12], greater than 100 µM in [22] and 6 µM (≈ 14.2 µg/mL) in [23].

Regarding `CC[C@H](C)[C@H](NC(=O)CN)C(=O)N[C@@H](CC(C)C)C(=O)N[C@@H](CO)C(=O)N[C@@H](CO)C(=O)N[C@@H](Cc1ccccc1)C(=O)N[C@@H](CCCCN)C(=O)NCC(=O)N[C@H](C(=O)N[C@@H](C)C(=O)N[C@@H](CCCCN)C(=O)NCC(=O)N[C@H](C(=O)N[C@@H](C)C(=O)N[C@@H](CCCCN)C(=O)N[C@@H](CC(N)=O)C(=O)N[C@@H](CC(C)C)C(=O)N[C@@H](C)C(=O)NCC(=O)N[C@@H](CCCCN)C(=O)N[C@@H](CC(C)C)C(=O)N[C@@H](CC(C)C)C(=O)N[C@@H](CC(=O)O)C(=O)N[C@@H](CCC(=O)O)C(=O)N[C@@H](CC(C)C)C(=O)N[C@@H](CCCCN)C(=O)N[C@H]1CSSC[C@@H](C(=O)O)NC(=O)CNC(=O)[C@H]([C@@H](C)O)NC(=O)[C@H]([C@@H](C)CC)NC(=O)[C@H](CCCCN)NC1=O)C(C)C)C(C)C` [GILSSFKGVAKGVAKNLAGKLLDELKCKITGC], the MIC in [2] was 5 µM (≈ 16.3 µg/mL); in experiment [17] it was 20 µM (≈ 65.2 µg/mL); in experiment [18], 10 µM (≈ 32.6 µg/mL); in experiment [19] it was no less than 40 µM; in experiment [20], 20 µM (≈ 65.2 µg/mL); in [21] it was no less than 40 µM. The values for the minimal inhibitory concentration (MIC) in [12], in experiment [22] and in experiment [23] were 5 µM (≈ 16.3 µg/mL), greater than 40 µM and 5 µM (≈ 16.3 µg/mL), respectively.

Source of the values: DBAASP.
